Experimental data taken from ChEMBL document CHEMBL1146909, “A novel class of positive allosteric modulators of AMPA receptors: design, synthesis, and structure-activity relationships of 3-biphenyl-4-yl-4-cyano-5-ethyl-1-methyl-1H-pyrrole-2-carboxylic acid, LY2059346” (Bioorg Med Chem Lett, 2006).

What was measured:
Assay type in all cases: functional, cell-based
Glutamate receptor 4 [1] = biological target: T1, Glutamate receptor 4 (Homo sapiens, UniProt P48058); experiment: Activity at human recombinant iGluR4 flip expressed in HEK293 cells measured as change in intracellular calcium ion concentration in presence of glutamate by FLIPR assay
T1 sequence (P48058 whole entry): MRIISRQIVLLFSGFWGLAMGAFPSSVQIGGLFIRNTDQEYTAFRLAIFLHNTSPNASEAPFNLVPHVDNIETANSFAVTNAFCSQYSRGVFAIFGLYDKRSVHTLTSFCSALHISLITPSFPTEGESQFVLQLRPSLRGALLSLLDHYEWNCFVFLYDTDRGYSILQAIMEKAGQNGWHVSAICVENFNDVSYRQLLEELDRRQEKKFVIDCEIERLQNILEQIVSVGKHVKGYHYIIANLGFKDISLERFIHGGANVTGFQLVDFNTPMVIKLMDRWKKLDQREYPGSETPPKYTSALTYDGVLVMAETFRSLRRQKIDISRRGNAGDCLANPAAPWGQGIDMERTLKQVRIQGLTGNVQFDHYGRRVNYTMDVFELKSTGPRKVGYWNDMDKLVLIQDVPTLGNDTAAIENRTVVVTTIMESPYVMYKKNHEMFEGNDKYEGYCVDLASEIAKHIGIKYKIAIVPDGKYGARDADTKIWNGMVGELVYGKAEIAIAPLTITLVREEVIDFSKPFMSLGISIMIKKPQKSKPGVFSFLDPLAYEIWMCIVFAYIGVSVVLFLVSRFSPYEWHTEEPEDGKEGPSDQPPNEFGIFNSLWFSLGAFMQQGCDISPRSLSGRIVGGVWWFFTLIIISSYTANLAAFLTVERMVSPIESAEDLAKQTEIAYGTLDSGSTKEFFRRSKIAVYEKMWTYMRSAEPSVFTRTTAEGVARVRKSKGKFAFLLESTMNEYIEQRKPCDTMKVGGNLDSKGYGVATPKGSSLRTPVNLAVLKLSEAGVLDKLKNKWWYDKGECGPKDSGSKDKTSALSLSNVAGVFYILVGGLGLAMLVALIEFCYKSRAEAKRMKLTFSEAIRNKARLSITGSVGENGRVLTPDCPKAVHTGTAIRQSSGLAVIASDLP

Glutamate receptor 4 [2] = biological target: T1, Glutamate receptor 4; experiment: Activity at human recombinant iGluR4 flop expressed in HEK293 cells measured as change in intracellular calcium ion concentration in presence of glutamate by FLIPR assay
Glutamate receptor 2 [3] = biological target: T2, Glutamate receptor 2 (Homo sapiens, UniProt P42262); experiment: Activity at human recombinant iGluR2 flop expressed in HEK293 cells measured as change in intracellular calcium ion concentration in presence of glutamate by FLIPR assay
T2 sequence (P42262 whole entry): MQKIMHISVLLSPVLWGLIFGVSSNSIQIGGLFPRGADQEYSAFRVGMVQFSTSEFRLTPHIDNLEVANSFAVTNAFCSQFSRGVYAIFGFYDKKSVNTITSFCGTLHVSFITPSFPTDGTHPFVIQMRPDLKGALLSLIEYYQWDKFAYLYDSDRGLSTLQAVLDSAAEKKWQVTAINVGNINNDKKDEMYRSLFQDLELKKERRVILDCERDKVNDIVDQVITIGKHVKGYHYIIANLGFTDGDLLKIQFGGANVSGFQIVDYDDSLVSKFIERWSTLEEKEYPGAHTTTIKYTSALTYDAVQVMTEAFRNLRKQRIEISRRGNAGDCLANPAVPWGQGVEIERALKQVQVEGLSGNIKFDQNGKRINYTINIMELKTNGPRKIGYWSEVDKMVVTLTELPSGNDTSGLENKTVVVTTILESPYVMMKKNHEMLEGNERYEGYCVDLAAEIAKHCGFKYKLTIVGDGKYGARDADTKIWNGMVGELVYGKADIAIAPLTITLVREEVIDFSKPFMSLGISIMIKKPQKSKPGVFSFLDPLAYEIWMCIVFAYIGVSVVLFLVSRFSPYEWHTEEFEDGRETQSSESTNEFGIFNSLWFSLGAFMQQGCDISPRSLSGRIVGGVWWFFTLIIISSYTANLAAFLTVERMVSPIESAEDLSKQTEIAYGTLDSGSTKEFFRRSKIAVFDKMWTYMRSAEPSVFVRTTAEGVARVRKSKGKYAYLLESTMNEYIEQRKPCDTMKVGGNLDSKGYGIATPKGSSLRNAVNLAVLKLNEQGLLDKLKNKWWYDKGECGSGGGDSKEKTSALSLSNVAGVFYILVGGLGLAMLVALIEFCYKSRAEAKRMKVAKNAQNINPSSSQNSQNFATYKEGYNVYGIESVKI

Glutamate receptor 2 [4] = biological target: T2, Glutamate receptor 2; experiment: Activity at human recombinant iGluR2 flip expressed in HEK293 cells measured as change in intracellular calcium ion concentration in presence of glutamate by FLIPR assay

SMILES | EC50 (Glutamate receptor 4 [1]) | EC50 (Glutamate receptor 4 [2]) | EC50 (Glutamate receptor 2 [3]) | EC50 (Glutamate receptor 2 [4])
Cn1cc(C#N)c(-c2ccc(-c3ccccc3)cc2)c1C(=O)O | > 3000 nM | > 3000 nM | > 3000 nM | > 3000 nM
CCc1c(C#N)c(-c2ccc(-c3ccc(C#N)cc3)cc2)c(C(=O)O)n1C | 373 nM | > 3000 nM | 370 nM | 423 nM
CCc1c(C#N)c(-c2ccc(-c3ccccc3F)cc2)c(C(=O)O)n1C | 80 nM | 185 nM | 143 nM | 111 nM
CCSc1c(C#N)c(-c2ccc(-c3ccccc3)cc2)c(C(=O)O)n1C | 619 nM | – | – | –
CCc1c(C#N)c(-c2ccc(-c3ccc(Cl)cc3)cc2)c(C(=O)O)n1C | 910 nM | > 3000 nM | 984 nM | 142 nM
CCc1c(C#N)c(-c2ccc(-c3ccccc3OC)cc2)c(C(=O)O)n1C | 673 nM | 386 nM | 902 nM | 280 nM
CSc1c(C#N)c(-c2ccc(-c3ccccc3)cc2)c(C(=O)O)n1C | 394 nM | 1300 nM | 473 nM | 174 nM
CC(C)Sc1c(C#N)c(-c2ccc(-c3ccccc3)cc2)c(C(=O)O)n1C | > 3000 nM | > 3000 nM | > 3000 nM | > 3000 nM
Cc1c(C#N)c(-c2ccc(-c3ccccc3)cc2)c(C(=O)O)n1C | 532 nM | 2390 nM | 391 nM | 308 nM
CCc1c(C#N)c(-c2ccc(-c3cccc(OC)c3)cc2)c(C(=O)O)n1C | 1050 nM | > 3000 nM | 924 nM | 391 nM
CCc1c(C#N)c(-c2ccc(-c3ccc(OC)cc3)cc2)c(C(=O)O)n1C | 738 nM | > 3000 nM | 370 nM | 423 nM
CCc1c(C#N)c(-c2ccc(-c3cccc(C#N)c3)cc2)c(C(=O)O)n1C | 631 nM | > 3000 nM | 974 nM | 395 nM
CCc1c(C#N)c(-c2ccc(-c3cccc(C)c3)cc2)c(C(=O)O)n1C | 2080 nM | > 3000 nM | 2130 nM | 965 nM
CCc1c(C#N)c(-c2ccc(-c3cccc(Cl)c3)cc2)c(C(=O)O)n1C | 1080 nM | > 3000 nM | 900 nM | 186 nM
CCc1c(C#N)c(-c2ccc(-c3ccccc3)cc2)c(C(=O)O)n1C | 213 nM | 1770 nM | 398 nM | 103 nM
CCc1c(C#N)c(-c2ccc(-c3ccccc3C#N)cc2)c(C(=O)O)n1C | 56 nM | 53 nM | 73 nM | 82 nM
CCOc1ccccc1-c1ccc(-c2c(C#N)c(CC)n(C)c2C(=O)O)cc1 | 158 nM | 146 nM | 36 nM | 83 nM
CCc1c(C#N)c(-c2ccc(-c3ccccc3SC)cc2)c(C(=O)O)n1C | 105 nM | 77 nM | 32 nM | 57 nM
CCc1c(C#N)c(-c2ccc(-c3cccc(F)c3)cc2)c(C(=O)O)n1C | 223 nM | > 3000 nM | 1490 nM | 426 nM
CCc1c(C#N)c(-c2ccc(-c3ccccc3C)cc2)c(C(=O)O)n1C | 790 nM | 1180 nM | 990 nM | 270 nM
CSc1sc(C(=O)O)c(-c2ccc(C(C)(C)C)cc2)c1C#N | 214 nM | 1560 nM | 309 nM | 97 nM
Cn1c(Br)c(C#N)c(-c2ccc(-c3ccccc3)cc2)c1C(=O)O | 679 nM | 1690 nM | > 3000 nM | > 3000 nM
CCc1c(C#N)c(-c2ccc(-c3ccc(F)cc3)cc2)c(C(=O)O)n1C | 242 nM | 2950 nM | 1040 nM | 345 nM
CCc1c(C#N)c(-c2ccc(-c3ccc(C)cc3)cc2)c(C(=O)O)n1C | 1140 nM | > 3000 nM | 1650 nM | 412 nM
CCc1c(C#N)c(-c2ccc(-c3ccccc3Cl)cc2)c(C(=O)O)n1C | 225 nM | 157 nM | 55 nM | 42 nM
